Measurements published in the NIST ThermoML archive (doi:10.1021/je030130y).

Assay: xn = mol fraction of the nth substance listed
Conditions: 101.3 kPa, Liquid; for viscosity: Capillary tube (Ostwald / Ubbelohde) method; for mass density: Pycnometric method

Clc1ccccc1 [chlorobenzene] + c1ccccc1
Conditions | mass density, 298.15 K [kg/m3] | mass density, 303.15 K [kg/m3] | mass density, 308.15 K [kg/m3] | mass density, 313.15 K [kg/m3] | viscosity, 298.15 K [mPa·s] | viscosity, 303.15 K [mPa·s] | viscosity, 308.15 K [mPa·s] | viscosity, 313.15 K [mPa·s]
x2 = 0 | 1100.9 | 1095.8 | 1090.8 | 1085.1 | 0.756 | 0.714 | 0.673 | 0.635
x2 = 0.1206 | 1076.5 | 1071.4 | 1066.4 | 1060.7 | 0.744 | 0.699 | 0.656 | 0.618
x2 = 0.2642 | 1046.5 | 1041.4 | 1036.3 | 1030.7 | 0.727 | 0.682 | 0.639 | 0.601
x2 = 0.3982 | 1017.5 | 1012.4 | 1007.3 | 1001.7 | 0.711 | 0.667 | 0.623 | 0.585
x2 = 0.4644 | 1002.8 | 997.7 | 992.6 | 987 | 0.702 | 0.659 | 0.616 | 0.578
x2 = 0.5321 | 987.7 | 982.5 | 977.3 | 971.7 | 0.694 | 0.65 | 0.607 | 0.57
x2 = 0.6074 | 970.4 | 965.2 | 960 | 954.5 | 0.683 | 0.64 | 0.598 | 0.561
x2 = 0.7069 | 946.8 | 941.6 | 936.4 | 930.9 | 0.665 | 0.623 | 0.582 | 0.545
x2 = 0.8131 | 920.9 | 915.7 | 910.5 | 905 | 0.643 | 0.601 | 0.562 | 0.527
x2 = 0.9162 | 895 | 889.8 | 884.6 | 879.2 | 0.621 | 0.583 | 0.545 | 0.512

Clc1ccccc1 [chlorobenzene] + CN(C)C=O
Conditions | mass density, 298.15 K [kg/m3] | mass density, 303.15 K [kg/m3] | mass density, 308.15 K [kg/m3] | mass density, 313.15 K [kg/m3] | viscosity, 298.15 K [mPa·s] | viscosity, 303.15 K [mPa·s] | viscosity, 308.15 K [mPa·s] | viscosity, 313.15 K [mPa·s]
x2 = 0 | 1100.9 | 1095.8 | 1090.8 | 1085.1 | 0.756 | 0.714 | 0.673 | 0.635
x2 = 0.1473 | 1083.5 | 1078.5 | 1073.6 | 1068.1 | 0.79 | 0.745 | 0.701 | 0.661
x2 = 0.2093 | 1076.3 | 1071.3 | 1066.5 | 1063.1 | 0.804 | 0.757 | 0.712 | 0.671
x2 = 0.2762 | 1068.1 | 1063.2 | 1058.3 | 1052.9 | 0.818 | 0.77 | 0.723 | 0.681
x2 = 0.4032 | 1051.2 | 1046.3 | 1041.5 | 1036.3 | 0.838 | 0.788 | 0.739 | 0.696
x2 = 0.4661 | 1042.2 | 1037.3 | 1032.5 | 1027.2 | 0.847 | 0.795 | 0.745 | 0.702
x2 = 0.6084 | 1020.2 | 1015.4 | 1010.6 | 1005.4 | 0.862 | 0.808 | 0.757 | 0.714
x2 = 0.7009 | 1003.8 | 999.1 | 994.5 | 989.4 | 0.856 | 0.803 | 0.752 | 0.709
x2 = 0.7842 | 988.1 | 983.4 | 978.7 | 973.7 | 0.846 | 0.794 | 0.744 | 0.702
x2 = 0.9351 | 957.7 | 953 | 948.3 | 943.4 | 0.818 | 0.769 | 0.721 | 0.683
